Literature values as cited in patent US7405313B2, “Method for the synthesis of basic chromium carboxylates” (The Board of Trustees of the University of Alabama, priority 2006, dated 2008).

Assays:
[1] = compared to other chromium-containing nutritional supplements
colorectal cancer = details: rat
[2] = test system: healthy and model type 2 diabetic rats
rats on regular diets = details: for effect on body mass, percentage lean or fat content, tissue size, or blood variables (fasting glucose, insulin, cholesterol, etc.): rats on regular diets
[3] = healthy and model type 2 diabetic rats

| Compound | dissolution in water | absorption [1] | onset of colorectal cancer (colorectal cancer) | glycated hemoglobin ([2]; diabetes models) | blood plasma cholesterol and triglycerides levels [2, 3] | insulin sensitivity [2, 3] | effect on body mass, percentage lean or fat content, tissue size, or blood variables (fasting glucose, insulin, cholesterol, etc.) (rats on regular diets) | acute toxic effects (rats on regular diets; rats, amounts up to 1500 μg/kg diet for up to 24 weeks) |
| --- | --- | --- | --- | --- | --- | --- | --- | --- |
| CCC(=O)[O-].CCC(=O)[O-].CCC(=O)[O-].CCC(=O)[O-].CCC(=O)[O-].CCC(=O)[O-].O.O.O.[Cr+3].[Cr+3].[Cr+3].[O-2] [Complex 1, [Cr3O(O2CCH2CH3)6(H2O)3]^+] | dissolves in water very rapidly | absorbed very rapidly and very efficiently | reduce the onset of colorectal cancer | reduce glycated hemoglobin | improve blood plasma cholesterol and triglycerides levels | increase insulin sensitivity |  |  |
| [Cl][Cr]([Cl])[Cl] [chromium chloride] |  |  |  |  |  |  | no effect |  |
| chromium(III) tris(picolinate) [Cr(pic)3] |  |  |  |  |  |  | no effect | no acute toxic effects |
